# Assays:
# Assay type in all cases: cell-based, human
# UISO cells (VN-MCC) = test: qHTS cell viability (CellTiter-Glo, 72 h; primary and follow-up small molecule screen); details: UISO, 72h
# MCC26 cells (VN-MCC) = test: as above; details: MCC26, 72h
# MCC13 cells (VN-MCC) = test: as above; details: MCC13, 72h
# MKL-2 cells (VP-MCC) = test: as above; details: MKL2, 72h
# MKL-1 cells (VP-MCC) = test: as above; details: MKL1, 72h
# [1] = system: VP-MCC cell lines (WAGA, MKL-1, MKL-2); test: qHTS cell viability, VP-MCC cell lines as a group (mean AUC, VP.MCC.avg); details: re-tested in triplicate, follow-up screen
# GDSC cancer cell lines = test: Genomics of Drug Sensitivity in Cancer (GDSC) IC50 comparison across cancer cell lines; details: own IC50 estimates compared with public IC50 data
# Experimental: Palo Alto, CA, USA) for these compounds from our small molecule screen. Following the graphing format in the GDSC database, compounds were ranked by IC50 and plotted in Rstudio using ggplot2, ggrepel, and scales packages. page 9: Supplementary Fig. S6. Au rora kinase inhibi tors mor e potentl y reduc e viability in VP-MCC than VN-MCC. […] Cell viability was measured by CellTiter- Glo at 72 h and by manual cell counts at 144 h. […] Consistent across n = 3 replicates . B) IC50 values (molar) for each aurora kinase inhibitor in each MCC cell line. […] IC50 values from GDSC (Gray-scale and green) were combined with IC50 values determined in our study (purple) and then ranked. n = number of experimental replicates for each cell line.
# WAGA cells (VP-MCC) = test: qHTS cell viability (CellTiter-Glo, 72 h; primary and follow-up small molecule screen); details: WAGA, 72h
structure (smiles),measurement,setting,value
"CCn1cc(-c2ccnc3[nH]c(-c4cccc(CN(C)C)c4)cc23)c(-c2ccc(NC(=O)N(C)C)cc2)n1 [GSK-1070916A, reference compound]",Percent viability,UISO cells (VN-MCC); Log (M) -5.33646,0.3%
same,Percent viability,UISO cells (VN-MCC); Log (M) -5.81358,33.6%
same,Percent viability,UISO cells (VN-MCC); Log (M) -6.2907,52.9%
same,Percent viability,UISO cells (VN-MCC); Log (M) -6.76782,71.1%
same,Percent viability,UISO cells (VN-MCC); Log (M) -7.24494,86.6%
same,Percent viability,UISO cells (VN-MCC); Log (M) -7.72207,91.6%
same,Percent viability,UISO cells (VN-MCC); Log (M) -8.19919,90.7%
same,Percent viability,UISO cells (VN-MCC); Log (M) -8.67631,81.3%
same,Percent viability,UISO cells (VN-MCC); Log (M) -9.15343,106.7%
same,Percent viability,UISO cells (VN-MCC); Log (M) -9.63055,103.4%
same,Percent viability,UISO cells (VN-MCC); Log (M) -10.1077,104.7%
same,Percent viability,MCC26 cells (VN-MCC); Log (M) -5.33646,11.3%
same,Percent viability,MCC26 cells (VN-MCC); Log (M) -5.81358,9.7%
same,Percent viability,MCC26 cells (VN-MCC); Log (M) -6.2907,42.5%
same,Percent viability,MCC26 cells (VN-MCC); Log (M) -6.76782,75.5%
same,Percent viability,MCC26 cells (VN-MCC); Log (M) -7.24494,88.6%
same,Percent viability,MCC26 cells (VN-MCC); Log (M) -7.72207,92.0%
same,Percent viability,MCC26 cells (VN-MCC); Log (M) -8.19919,93.6%
same,Percent viability,MCC26 cells (VN-MCC); Log (M) -8.67631,92.5%
same,Percent viability,MCC26 cells (VN-MCC); Log (M) -9.15343,92.1%
same,Percent viability,MCC26 cells (VN-MCC); Log (M) -9.63055,87.6%
same,Percent viability,MCC26 cells (VN-MCC); Log (M) -10.1077,89.3%
same,Percent viability,MCC13 cells (VN-MCC); Log (M) -5.33646,0.9%
same,Percent viability,MCC13 cells (VN-MCC); Log (M) -5.81358,37.2%
same,Percent viability,MCC13 cells (VN-MCC); Log (M) -6.2907,74.5%
same,Percent viability,MCC13 cells (VN-MCC); Log (M) -6.76782,88.4%
same,Percent viability,MCC13 cells (VN-MCC); Log (M) -7.24494,96.7%
same,Percent viability,MCC13 cells (VN-MCC); Log (M) -7.72207,113.8%
same,Percent viability,MCC13 cells (VN-MCC); Log (M) -8.19919,87.1%
same,Percent viability,MCC13 cells (VN-MCC); Log (M) -8.67631,100.5%
same,Percent viability,MCC13 cells (VN-MCC); Log (M) -9.15343,112.0%
same,Percent viability,MCC13 cells (VN-MCC); Log (M) -9.63055,98.4%
same,Percent viability,MCC13 cells (VN-MCC); Log (M) -10.1077,100.0%
same,Percent viability,MKL-2 cells (VP-MCC); Log (M) -5.33646,1.0%
same,Percent viability,MKL-2 cells (VP-MCC); Log (M) -5.81358,2.3%
same,Percent viability,MKL-2 cells (VP-MCC); Log (M) -6.2907,21.5%
same,Percent viability,MKL-2 cells (VP-MCC); Log (M) -6.76782,34.0%
same,Percent viability,MKL-2 cells (VP-MCC); Log (M) -7.24494,33.8%
same,Percent viability,MKL-2 cells (VP-MCC); Log (M) -7.72207,50.1%
same,Percent viability,MKL-2 cells (VP-MCC); Log (M) -8.19919,59.6%
same,Percent viability,MKL-2 cells (VP-MCC); Log (M) -8.67631,59.6%
same,Percent viability,MKL-2 cells (VP-MCC); Log (M) -9.15343,98.0%
same,Percent viability,MKL-2 cells (VP-MCC); Log (M) -9.63055,107.1%
same,Percent viability,MKL-2 cells (VP-MCC); Log (M) -10.1077,88.8%
same,Percent viability,MKL-1 cells (VP-MCC); Log (M) -5.33646,0.6%
same,Percent viability,MKL-1 cells (VP-MCC); Log (M) -5.81358,0.7%
same,Percent viability,MKL-1 cells (VP-MCC); Log (M) -6.2907,25.3%
same,Percent viability,MKL-1 cells (VP-MCC); Log (M) -6.76782,39.6%
same,Percent viability,MKL-1 cells (VP-MCC); Log (M) -7.24494,24.8%
same,Percent viability,MKL-1 cells (VP-MCC); Log (M) -7.72207,28.8%
same,Percent viability,MKL-1 cells (VP-MCC); Log (M) -8.19919,32.4%
same,Percent viability,MKL-1 cells (VP-MCC); Log (M) -8.67631,60.3%
same,Percent viability,MKL-1 cells (VP-MCC); Log (M) -9.15343,97.5%
same,Percent viability,MKL-1 cells (VP-MCC); Log (M) -9.63055,94.1%
same,Percent viability,MKL-1 cells (VP-MCC); Log (M) -10.1077,98.1%
same,VP-MCC viability (in words),[1],consistently and potently reduced VP-MCC viability
same,potency in VP-MCC cell lines versus other human cancer cell lines (GDSC),GDSC cancer cell lines,higher in VP-MCC cell lines than in hundreds of other human cancer cell lines
same,Percent viability,WAGA cells (VP-MCC); Log (M) -5.33646,2.1%
same,Percent viability,WAGA cells (VP-MCC); Log (M) -5.81358,12.6%
same,Percent viability,WAGA cells (VP-MCC); Log (M) -6.2907,31.4%
same,Percent viability,WAGA cells (VP-MCC); Log (M) -6.76782,40.3%
same,Percent viability,WAGA cells (VP-MCC); Log (M) -7.24494,26.0%
same,Percent viability,WAGA cells (VP-MCC); Log (M) -7.72207,27.1%
same,Percent viability,WAGA cells (VP-MCC); Log (M) -8.19919,28.3%
same,Percent viability,WAGA cells (VP-MCC); Log (M) -8.67631,104.6%
same,Percent viability,WAGA cells (VP-MCC); Log (M) -9.15343,100.0%
same,Percent viability,WAGA cells (VP-MCC); Log (M) -9.63055,103.0%
same,Percent viability,WAGA cells (VP-MCC); Log (M) -10.1077,100.0%

# Reference: PMC11822212, “High-throughput screening identifies Aurora kinase B as a critical therapeutic target for Merkel cell carcinoma” (Nature Communications, 2025)
